This note sets out measurements from US11964953B2, “Substituted aminothiazoles as DGKzeta inhibitors for immune activation” (Bayer Aktiengesellschaft, priority 2020, dated 2024).

pIC50: −log10 of the molar value.

For orientation: pIC50 means −log10 of the IC50, conventionally taken in molar units.

Chain of human DGKζ (Q13574 other isoform, or with tags, fused parts or gaps): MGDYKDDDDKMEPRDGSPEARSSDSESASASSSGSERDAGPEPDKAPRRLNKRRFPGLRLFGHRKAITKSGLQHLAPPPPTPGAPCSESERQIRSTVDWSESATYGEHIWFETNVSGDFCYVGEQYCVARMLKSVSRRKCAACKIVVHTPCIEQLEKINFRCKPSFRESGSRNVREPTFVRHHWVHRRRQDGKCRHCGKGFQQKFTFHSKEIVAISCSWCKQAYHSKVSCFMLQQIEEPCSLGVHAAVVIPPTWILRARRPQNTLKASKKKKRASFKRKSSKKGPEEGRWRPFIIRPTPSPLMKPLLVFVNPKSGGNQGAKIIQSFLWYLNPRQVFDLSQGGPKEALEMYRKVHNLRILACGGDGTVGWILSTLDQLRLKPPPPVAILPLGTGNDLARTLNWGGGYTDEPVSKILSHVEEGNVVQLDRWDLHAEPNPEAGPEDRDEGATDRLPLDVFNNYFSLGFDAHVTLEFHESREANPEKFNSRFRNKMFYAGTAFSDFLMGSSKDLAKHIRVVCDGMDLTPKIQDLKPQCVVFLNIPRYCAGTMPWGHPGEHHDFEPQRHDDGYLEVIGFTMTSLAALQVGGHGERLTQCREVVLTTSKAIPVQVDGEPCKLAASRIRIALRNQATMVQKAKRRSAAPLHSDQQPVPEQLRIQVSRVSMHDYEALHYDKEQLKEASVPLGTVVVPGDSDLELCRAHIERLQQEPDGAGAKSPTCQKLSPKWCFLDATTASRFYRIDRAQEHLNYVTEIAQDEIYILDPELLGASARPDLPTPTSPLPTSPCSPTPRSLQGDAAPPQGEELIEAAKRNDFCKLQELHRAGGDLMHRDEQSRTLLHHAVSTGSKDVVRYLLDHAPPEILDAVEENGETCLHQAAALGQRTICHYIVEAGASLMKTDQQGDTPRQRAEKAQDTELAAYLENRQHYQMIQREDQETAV

The test has as its target human DGKζ (Homo sapiens (Human), UniProt Q13574). Nature of the test: Human DGKζ kinase activity inhibition assay (ADP-Glo). The test is classed as biochemical. The note with it: in vitro human DGKζ kinase activity inhibition assay; read-out: IC50. On the procedure:
Human DGKζ Kinase Activity Inhibition Assay. Human diacylglycerol kinase zeta (DGKζ) inhibitory activity of compounds of the present invention was quantified employing the human DGKζ kinase activity assay as described in the following paragraphs. In essence, the enzyme activity was measured by quantification of the adenosine-di-phosphate (ADP) generated as a co-product of the enzyme reaction via the “ADP-Glo™ Kinase Assay” kit from the company Promega. This detection system works as follows: In a first step the adenosine-tri-phosphate (ATP) not consumed in the kinase reaction is quantitatively converted to cyclic adenosine-mono-phosphate (cAMP) employing an adenylate cyclase (“ADP-Glo-reagent”), then the adenylate cyclase is stopped and the ADP generated in the kinase reaction is converted to ATP, which subsequently generates in a luciferase-based reaction a glow-luminescence signal (“Kinase Detection Reagent”). C-terminally FLAG-tagged, recombinant full-length human DGKζ (in house expressed in baculovirus infected insect cells, purified using anti-Flag pulldown and size exclusion chromatography) was used as enzyme. As an alternative, commercially available enzyme by Carnabio can be used. […] Subsequently, 22.55 volumes of a 510 mM solution of octyl-β-D-glucopyranoside (Sigma-Aldrich, Cat. #O8001-10G) in 50 mM MOPS buffer (pH 7.4) were added, and the mixture was sonicated in an ultrasonic bath for 20 s. […] Viewlux™ from Perkin-Elmer). The amount of emitted light was taken as a measure for the amount of ADP generated and thereby for the activity of the DGKζ.
As for `CC(C(N)=O)N(c1ccc(F)cc1)c1nc(N)c(C(=O)c2ccc(C(F)(F)F)nc2)s1` (racemic) [Example 29, rac-2-(N-[4-amino-5-[6-(trifluoromethyl)pyridine-3-carbonyl]thiazol-2-yl]-4-fluoro-anilino)propanamide], the pIC50 was 7.23.
The result for `CC(C(N)=O)N(c1nc(N)c(C(=O)c2ccccc2)s1)c1ccc(Cl)cc1F` (racemic) [Example 30, rac-2-(N-(4-amino-5-benzoyl-thiazol-2-yl)-4-chloro-2-fluoro-anilino)propanamide] reads 7.24; that for `CC(C(N)=O)N(c1ccc(F)cc1)c1nc(N)c(C(=O)c2ccc3c(c2)CCC3)s1` (racemic) [Example 31, rac-2-(N-[4-amino-5-(indane-5-carbonyl)thiazol-2-yl]-4-fluoro-anilino)propanamide], 7.36.
With `CC(C(N)=O)N(c1ccc(F)c(F)c1)c1nc(N)c(C(=O)c2ccccc2)s1` (racemic) [Example 32, rac-2-(N-(4-amino-5-benzoyl-thiazol-2-yl)-3,4-difluoro-anilino)propanamide] the figure was 7.41; with `CC(C(N)=O)N(c1ccc(F)cc1)c1nc(N)c(C(=O)c2ccc(C#N)cc2)s1` (racemic) [Example 33, rac-2-(N-[4-amino-5-(4-cyanobenzoyl)thiazol-2-yl]-4-fluoro-anilino)propanamide], 7.37; with `CC(C(N)=O)N(c1ccc(Cl)cc1)c1nc(N)c(C(=O)c2ccccc2)s1` (racemic) [Example 34, rac-2-(N-(4-amino-5-benzoyl-thiazol-2-yl)-4-chloro-anilino)propanamide], 7.46.
For the compound `CC(C(N)=O)N(c1ccc(Cl)c(Cl)c1)c1nc(N)c(C(=O)c2ccccc2)s1` (racemic) [Example 35, rac-2-(N-(4-amino-5-benzoyl-thiazol-2-yl)-3,4-dichloro-anilino)propanamide], the pIC50 is 7.60.
The result for `CC(C(N)=O)N(c1ccc(Cl)c(F)c1)c1nc(N)c(C(=O)c2ccccc2)s1` (racemic) [Example 36, rac-2-(N-(4-amino-5-benzoyl-thiazol-2-yl)-4-chloro-3-fluoro-anilino)propanamide] reads 7.65.
The result for `CC(C(N)=O)N(c1ccc(Cl)cc1)c1nc(N)c(C(=O)c2ccc(F)cc2)s1` (racemic) [Example 37, rac-2-(N-[4-amino-5-(4-fluorobenzoyl)thiazol-2-yl]-4-chloro-anillno)propanamide] reads 7.70; that for `CC(C(N)=O)N(c1ccc(F)cc1)c1nc(N)c(C(=O)c2ccc(Cl)cc2)s1` (racemic) [Example 38, rac-2-(N-[4-amino-5-(4-chlorobenzoyl)thiazol-2-yl]-4-fluoro-anilino)propanamide], 7.71; that for `CCOC(=O)C(C)(C)Oc1ccc(C(=O)c2sc(N(c3ccc(F)cc3)C(C)C(N)=O)nc2N)cc1` (racemic) [Example 39, Rac-ethyl 2-[4-[4-amino-2-(N-[2-amino-1-methyl-2-oxo-ethyl]-4-fluoro-anilino)thiazole-5-carbonyl]phenoxy]-2-methyl-propanoate], 7.72.
Take `CC(C(N)=O)N(c1ccc(F)cc1)c1nc(N)c(C(=O)c2ccc(OC(F)(F)F)cc2)s1` (racemic) [Example 40, rac-2-(N-[4-amino-5-[4-(trifluoromethoxy)benzoyl]thiazol-2-yl]-4-fluoro-anilino)propanamide]: the pIC50 is 7.81.
On to `CC(C(N)=O)N(c1ccc(Cl)cc1)c1nc(N)c(C(=O)c2ccc(Cl)cc2)s1` (racemic) [Example 41, rac-2-(N-[4-amino-5-(4-chlorobenzoyl)thiazol-2-yl]-4-chloro-anilino)propanamide], for which the negative logarithm of the IC50 (pIC50) was 7.87.
The result for `CC(C(N)=O)N(c1ccc(F)cc1)c1nc(N)c(C(=O)c2ccc(C(F)(F)F)cc2)s1` (racemic) [Example 42, rac-2-(N-[4-amino-5-[4-(trifluoromethyl)benzoyl]thiazol-2-yl]-4-fluoro-anilino)propanamide] reads 7.95; that for `CC(C(N)=O)N(c1ccc(C(F)(F)F)cc1)c1nc(N)c(C(=O)c2ccc(OC(F)F)cc2)s1` (racemic) [Example 43, rac-2-[N-[4-amino-5-[4-(difluoromethoxy)benzoyl]thiazol-2-yl-4-(trifluoromethyl)anilino]propanamide], 7.95; that for `CC(C(N)=O)N(c1ccc(F)cc1)c1nc(N)c(C(=O)c2ccc(OC(F)F)cc2)s1` (racemic) [Example 44, rac-2-(N-[4-amino-5-[4-(difluoromethoxy)benzoyl]thiazol-2-yl]-4-fluoro-anilino)propanamide], 8.05.
With `CC(Oc1ccc(C(=O)c2sc(N(c3ccccc3)C(C)C(N)=O)nc2N)cc1)C(N)=O` (racemic) [Example 45, 2-(N-[4-amino-5-[4-[2-amino-1-methyl-2-oxo-ethoxy]benzoyl]thiazol-2-yl]anilino)propanamide] the figure was 6.47; with `CC(C(N)=O)N(c1nc(N)c(C(=O)c2ccc(OC(F)F)cc2)s1)c1ccc(Cl)cc1F` (racemic) [Example 46, rac-2-(N-[4-amino-5-[4-(difluoromethoxy)benzoyl]thiazol-2-yl]-4-chloro-2-fluoro-anilino)propanamide], 8.15.
With `CC(C(N)=O)N(c1ccc(Cl)cc1)c1nc(N)c(C(=O)c2ccc(OC(F)F)cc2)s1` (racemic) [Example 47, rac-2-(N-[4-amino-5-[4-(difluoromethoxy)benzoyl]thiazol-2-yl]-4-chloro-anilino)propanamide], the pIC50 is 8.42.
As for `CC(C(N)=O)N(c1ccc(Cl)c(F)c1)c1nc(N)c(C(=O)c2ccc(OC(F)F)cc2)s1` (racemic) [Example 48, rac-2-(N-[4-amino-5-[4-(difluoromethoxy)benzoyl]thiazol-2-yl]-4-chloro-3-fluoro-anilino)propanamide], the pIC50 was 8.43.
The result for `CC(C(N)=O)N(c1ccc(F)c(F)c1)c1nc(N)c(C(=O)c2ccc(OC(F)F)cc2)s1` (racemic) [Example 49, rac-2-(N-[4-amino-5-[4-(difluoromethoxy)benzoyl]thiazol-2-yl]-3,4-difluoro-anilino)propanamide] reads 8.56; that for `CC(C(N)=O)N(c1ccc(F)c(F)c1)c1nc(N)c(C(=O)c2ccncc2)s1` (racemic) [Example 50, rac-2-(N-[4-amino-5-(pyridine-4-carbonyl)thiazol-2-yl]-3,4-difluoro-anilino)propanamide], 6.42; that for `COc1ccc(C(=O)c2sc(N(c3ccc(F)c(F)c3)C(C)C(N)=O)nc2N)cc1` (racemic) [Example 51, rac-2-(N-[4-amino-5-(4-methoxybenzoyl)thiazol-2-yl]-3,4-difluoro-anilino)propanamide], 7.78.
With `COc1ccc(C(=O)c2sc(N(c3ccc(F)c(F)c3)C(C)C(N)=O)nc2N)cn1` (racemic) [Example 52, rac-2-(N-[4-amino-5-(6-methoxypyridine-3-carbonyl)thiazol-2-yl]-3,4-difluoro-anilino)propanamide] the figure was 7.00.
Consider `CC(C(N)=O)N(c1ccc(F)c(F)c1)c1nc(N)c(C(=O)c2ccc(C(F)(F)F)nc2)s1` (racemic) [Example 53, rac-2-(N-[4-amino-5-[6-(trifluoromethyl)pyridine-3-carbonyl]thiazol-2-yl]-3,4-difluoro-anilino)propanamide], for which the pIC50 was 7.51.
Regarding `Cc1nc(N(c2ccc(F)c(F)c2)C(C)C(N)=O)sc1C(=O)c1ccc(OC(F)F)cc1` (racemic) [Example 55, rac-2-(N-[5-[4-(difluoromethoxy)benzoyl]-4-methyl-thiazol-2-yl]-3,4-difluoro-anilino)propanamide], the pIC50 was 8.01.
With `CC(C(N)=O)N(c1ccc(Cl)c(F)c1)c1nc(N)c(C(=O)c2ccncc2)s1` (racemic) [Example 56, rac-2-(N-[4-amino-5-(pyridine-4-carbonyl)thiazol-2-yl]-4-chloro-3-fluoro-anilino)propanamide] the figure was 6.92.
With `CC(C(N)=O)N(c1ccc(Cl)cc1)c1nc(N)c(C(=O)c2ccncc2)s1` (racemic) [Example 57, rac-2-(N-[4-amino-5-(pyridine-4-carbonyl)thiazol-2-yl]-4-chloro-anilino)propanamide] the figure was 6.81; with `COc1ccc(C(=O)c2sc(N(c3ccc(Cl)cc3)C(C)C(N)=O)nc2N)cc1` (racemic) [Example 58, rac-2-(N-[4-amino-5-(4-methoxybenzoyl)thiazol-2-yl]-4-chloro-anilino)propanamide], 7.78.
With `COc1ccc(C(=O)c2sc(N(c3ccc(Cl)c(F)c3)C(C)C(N)=O)nc2N)cc1` (racemic) [Example 59, rac-2-(N-[4-amino-5-(4-methoxybenzoyl)thiazol-2-yl]-4-chloro-3-fluoro-anilino)propanamide] the figure was 7.99; with `CC(C(N)=O)N(c1ccccc1)c1nc(N)c(C(=O)c2ccccc2)s1` (racemic) [Example 60, rac-2-(N-(4-amino-5-benzoyl-thiazol-2-yl)anilino)propanamide], 6.39; with `CC(C(N)=O)N(c1ccc(F)cc1)c1nc(N)c(C(=O)c2ccccc2)s1` (racemic) [Example 61, rac-2-(N-(4-amino-5-benzoyl-thiazol-2-yl)-4-fluoro-anilino)propanamide], 7.03.
